{"source": "patent US6566047B1", "about": "“Method for identifying neurite-growth promoting agents” (The Regents of the University of Colorado, priority 1998, dated 2003)", "key": {"[1]": {"tested_on": "MAT-Lu cells", "experiment": "Boyden chamber motility assay, MAT-Lu cells", "format": "cell-based, rat", "conditions": "for Mat-Lu cells crossing filter in % of control +/− SEM: 4 hr, thrombin 200 nM, CDC 126 nM", "protocol": "Boyden Chamber Motility Assays. Disposable transwells (Coming Costar, Cambridge, Mass.) of 6.5 mm diameter and 8 μm pore size were coated with 5 μg/ml laminin on both sides. The membranes were washed twice with Hank's balanced salt solution (HBSS) and then pre-incubated with growth medium containing 10% fetal bovine serum. Trypsinized cells (5×10^4) were plated into the upper well. After 1 hour the upper chamber was washed twice with HBSS, filled with serum-free medium and moved to a new lower chamber, also filled with serum-free medium, with or without thrombin and/or 0.75 nM insulin-like growth factor-1 (IGF-1). After incubation for 4 hrs, cells on the membrane were fixed and stained with a Diff-Quick kit (Baxter Scientific Products). Cells on the upper side were scraped off, the membranes were removed, mounted onto microscope slides and analyzed. Each filter was scanned twice at right angles under the light microscope with a 16×phase contrast objective lens. A continuous series of 20 frames for each filter was digitized using a high-resolution CCD camera (Kodak) and stored in a Power Macintosh computer. The two most peripheral pairs of frames from each scan were deleted so that 12 frames were analyzed for each filter. Cells that had crossed the membrane were counted and tabulated. The sum of the cells counted in the twelve frames was an individual data point."}, "[2]": {"tested_on": "AT-2 cells", "experiment": "Pseudopod length / retraction assay, AT-2 cells", "format": "cell-based, rat", "conditions": "AA even at 10^−1M", "protocol": "Pseudopod Morphometry. To study the effects of various agents on pseudopods on a short-term basis, we measured pseudopod lengths. Cells plated in 35-mm diameter dishes at low density (1×10^4 per dish) were incubated overnight, tie medium was changed, and the experiments were run four hours later. First, cultures were shifted to serum-free medium, which was replaced one hour later by serum-free medium with or without the various agents (thrombin, AA or HETEs). Care was taken to avoid heat and light inactivation of the eicosanoids. Culture dishes were placed on a Zeiss inverted microscope equipped with a heated stage and viewed with a 16×phase contrast objective lens. Randomly selected fields of the cultures, containing generally about 20 cells each, were recorded, digitized and stored in the computer at the onset of the experiment and at different times thereafter.\nIn some cases, individual cells were monitored over different periods of time immediately after introduction of the reagent, either by mixing it into the medium or by applying it locally to one end of the cell. Local application was done with a “puffer” system that expels microliter amounts of the desired solution from a micromanipulator-controlled micropipette tip. Cell morphology was recorded, and the captured images were analyzed with a Power Macintosh computer using NIH Image. Cell process length was measured from the center of the nucleus to the end of the process. Characterization of the frequencies of pseudopod lengths, at a fixed time for each of a sequence of concentrations of reagent, utilized a gamma regression model with an inverse quadratic linear predictor (McCullagh and Nelder, Generalized Linear Models 2d ed., pp. 291-292 (Chapman & Hall, 1989), separately fit to each concentration data set. Although no formal goodness-of-fit tests were carried out, in virtually every case there was good visual representation of the pattern of response (see FIG. 14). Most data, however, are shown as whisker-box plots, where the center point represents the 50%, the ends of the box the […] and 75%, and the “whiskers” the 5% and 95% quantiles (e.g., FIG. 11). Statistical comparisons of pseudopod lengths for different treatments were done by standard non-parametric techniques (Wilcoxon Rank Sum or Kruskal-Wallis Tests), as judged appropriate. Polynomial curve fittings were done by standard least-squares techniques. Statistical analyses and graphing were done with the use of SAS procedures: Reg, Phreg, Nparlway and Plot (SAS institute Inc., Cary, N.C.)."}, "[3]": {"tested_on": "cPLA2", "experiment": "cPLA2 activity in PC-3M-MM2 cells", "format": "biochemical, human", "protocol": "PLA2 stimulation. Using ^14C-AA-PE, -PC or -PI as a substrate, thrombin, SemaIV and netrin activation of the enzyme are measured. For these assays, commercially available thrombin or thrombin-receptor-activating peptide (TRAP) (Sigma, St. Louis, Mo.), recombinant SemaIV provided to us by Dr. H. Drabkin, University of Colorado School of Medicine, recombinant SemaIII provided by Dr. Y. Luo, Exelixis Pharmaceuticals, San Francisco Calif., and recombinant netrin from Dr. M. Tessier-Lavigne, (University of California, San Francisco) are used. Time courses and dose-response curves are generated with the appropriate substrate(s). These assays are carried out according to well-established protocols described in Negre-Aminou et al., 1996, supra, incorporated herein by reference, on cells grown to equal density levels (as determined by protein and DNA content). Some enzyme assays are carried out in the presence of reducing agent, which blocks secreted but not cytosolic PLA2 activity, to exclude potential interference by secreted PLA2. To characterize the stimulated cPLA2 further, cultured cells are homogenized in protease inhibitor-containing buffer, in the presence of 1 mM EDTA or 0.3 mM Ca^2+, and then centrifuged in order to generate crude membrane fractions and cytosolic extracts. […] In separate experiments, enzyme activity is measured in the presence of different concentrations of free calcium to determine whether the enzyme activity is calcium-dependent or not"}, "[4]": {"tested_on": "growth cone PLA2", "experiment": "PLA2 assay in growth cone particles (GCPs)", "format": "biochemical, rat", "conditions": "for net activity (pmol/min/mg protein), GCPs: Table 3a, 100 nM", "protocol": "Growth Cone Particle (GCP) Isolation. GCPs were prepared as described by Pfenninger et al. (1983) and modified by Lohse et al., Dev. Brain Res., 96:38-96 (1996). Briefly, 18-day fetal brains were homogenized in approximately 8 volumes of 0.32 M sucrose containing 1 mM MgCl2, 2 mM TES buffer, pH 7.3, and 3 μM aprotinin. A low-speed supernatant (1,660 g×15 min) was loaded onto a discontinuous sucrose density gradient With steps of 0.83 M and 2.66 M sucrose containing MgCl2 and TES. The gradients were spun to equilibrium at 242,000 g for 40 min in a vertical rotor (Vti50, Beckman). The GCP fraction at the 0.32/0.83 M sucrose interface was collected and used for the experiments described below.\nAll assays were run in triplicate."}}, "data": [{"substance": "thrombin: potent growth cone repellent; commercially available thrombin (Sigma); rat thrombin in Boyden assays", "values": [{"measurement": "effect on cell migration across the membrane", "setting": "[1]; 200 nM in lower well, 4 hrs, serum-free medium", "value": "almost completely suppresses cell migration across the membrane"}, {"measurement": "Mat-Lu cells crossing filter in % of control +/− SEM", "setting": "[1]; Control column (no IGF-1)", "value": "30.9 +/− 5.7 % of control"}, {"measurement": "Mat-Lu cells crossing filter in % of control +/− SEM", "setting": "[1]; IGF-1 (0.75 nM)", "value": "38 +/− 9.2 % of control"}, {"measurement": "decrease in control and IGF-1-induced migration across the membrane", "setting": "[1]; at 200 nM", "value": "70-80%"}, {"measurement": "pseudopod retraction response of AT-2 cells", "setting": "[2]", "value": "essentially did not respond"}, {"measurement": "stimulation of AA release from PC", "setting": "[3]", "value": "about 4 fold"}, {"measurement": "stimulation of AA release from PE", "setting": "[3]", "value": "about 4 fold"}, {"measurement": "stimulation of PI hydrolysis", "setting": "[3]", "value": "not further stimulated by thrombin"}, {"measurement": "concentration at which PLA2 activation saturates", "setting": "[4]; AA release from PI", "value": "about 250 nM"}, {"measurement": "net activity (pmol/min/mg protein), GCPs", "setting": "[4]; substrate PE", "value": "210.2 ± 4.8", "unit": "pmol/min/mg protein"}, {"measurement": "net activity (pmol/min/mg protein), GCPs", "setting": "[4]; substrate PI", "value": "262 ± 47", "unit": "pmol/min/mg protein"}, {"measurement": "net activity (pmol/min/mg protein), no DTT", "setting": "[4]; Table 3b, GCPs, substrate PI, thrombin 100 nM", "value": "221 ± 39.9", "unit": "pmol/min/mg protein"}, {"measurement": "net activity (pmol/min/mg protein), 50 nM DTT", "setting": "[4]; Table 3b, GCPs, substrate PI, thrombin 100 nM or control", "value": "223 ± 53.4", "unit": "pmol/min/mg protein"}, {"measurement": "net activity (pmol/min/mg protein)", "setting": "[4]; Table 3c, GCPs, substrate PI, BDNF 100, IGF-1 0.75, insulin 1, thrombin 200 nM, control 159 ± 6.2", "value": "355 ± 28.0", "unit": "pmol/min/mg protein"}, {"measurement": "stimulation of PC-hydrolyzing cPLA2 (14C-AA release from PC)", "setting": "[4]; thrombin 100 nM, GCPs", "value": "about 7 fold"}, {"measurement": "stimulation of cPLA2-PE (14C-AA release from PE)", "setting": "[4]; thrombin 100 nM, GCPs", "value": "~7", "unit": "fold"}, {"measurement": "stimulation of cPLA2-PI (14C-AA release from PI)", "setting": "[4]; thrombin 100 nM, GCPs", "value": "about 5 fold"}, {"measurement": "stimulation of PC-hydrolyzing cPLA2 (14C-AA release from PC)", "setting": "[4]; thrombin 100 nM, GCPs, listed as Thrombin", "value": "~7", "unit": "fold"}]}]}
